Assay results published in the NIST ThermoML archive (doi:10.1021/acs.jced.7b00106).

Conditions: Hot wire method

FC(F)(F)/C=C/Cl [(E)-1-chloro-3,3,3-trifluoroprop-1-ene]
Conditions	thermal conductivity [W/m/K]
323.1 K, 34268 kPa, Liquid	0.09193
323.1 K, 66598 kPa, Liquid	0.1029
323.11 K, 123 kPa, Gas	0.01239
323.13 K, 141 kPa, Gas	0.01226
323.13 K, 436 kPa, Liquid	0.07562
323.13 K, 34301 kPa, Liquid	0.09204
323.15 K, 9819 kPa, Liquid	0.08053
323.15 K, 56133 kPa, Liquid	0.09946
323.17 K, 162 kPa, Gas	0.01242
323.18 K, 25073 kPa, Liquid	0.08808
323.2 K, 191 kPa, Gas	0.01256
323.22 K, 5184 kPa, Liquid	0.07808
323.24 K, 99 kPa, Gas	0.01215
323.24 K, 43827 kPa, Liquid	0.09508
323.25 K, 99 kPa, Gas	0.01276
323.25 K, 164 kPa, Gas	0.01258
323.26 K, 123 kPa, Gas	0.01268
323.26 K, 43810 kPa, Liquid	0.0946
323.3 K, 34263 kPa, Liquid	0.09159
323.32 K, 34298 kPa, Liquid	0.09169
323.33 K, 446 kPa, Liquid	0.07514
323.39 K, 25067 kPa, Liquid	0.08782
323.41 K, 123 kPa, Gas	0.01233
323.45 K, 161 kPa, Gas	0.01242
323.47 K, 142 kPa, Gas	0.0127
323.52 K, 66583 kPa, Liquid	0.1032
323.54 K, 259 kPa, Gas	0.01261
323.54 K, 66602 kPa, Liquid	0.103
323.57 K, 16961 kPa, Liquid	0.08443
323.6 K, 56150 kPa, Liquid	0.09972
323.64 K, 165 kPa, Gas	0.01259
323.64 K, 189 kPa, Gas	0.01262
323.65 K, 123 kPa, Gas	0.01276
323.66 K, 9815 kPa, Liquid	0.08057
323.69 K, 99 kPa, Gas	0.01287
323.72 K, 123 kPa, Gas	0.01229
323.73 K, 66589 kPa, Liquid	0.103
323.75 K, 66615 kPa, Liquid	0.1027
323.76 K, 5178 kPa, Liquid	0.07818
323.77 K, 160 kPa, Gas	0.01238
323.77 K, 16953 kPa, Liquid	0.08413
323.81 K, 56140 kPa, Liquid	0.09958
323.87 K, 438 kPa, Liquid	0.07537
323.88 K, 9798 kPa, Liquid	0.08054
323.92 K, 142 kPa, Gas	0.01276
323.98 K, 5181 kPa, Liquid	0.07788
323.99 K, 260 kPa, Gas	0.01261
324.07 K, 165 kPa, Gas	0.01273
324.09 K, 123 kPa, Gas	0.0128
324.11 K, 428 kPa, Liquid	0.07518
324.12 K, 188 kPa, Gas	0.01262
324.17 K, 99 kPa, Gas	0.01287
324.41 K, 142 kPa, Gas	0.01275
324.45 K, 260 kPa, Gas	0.01268
324.52 K, 165 kPa, Gas	0.01271
324.55 K, 123 kPa, Gas	0.01276
324.61 K, 187 kPa, Gas	0.01271
324.68 K, 99 kPa, Gas	0.0129
324.93 K, 141 kPa, Gas	0.01279
324.96 K, 260 kPa, Gas	0.01269
324.99 K, 163 kPa, Gas	0.01274
325.04 K, 123 kPa, Gas	0.01286
325.13 K, 186 kPa, Gas	0.01278
325.22 K, 99 kPa, Gas	0.01286
325.47 K, 141 kPa, Gas	0.01283
325.5 K, 161 kPa, Gas	0.01276
325.56 K, 123 kPa, Gas	0.01283
325.79 K, 99 kPa, Gas	0.01295
326.04 K, 160 kPa, Gas	0.01284
326.1 K, 123 kPa, Gas	0.01295
331.18 K, 333 kPa, Gas	0.01373
331.42 K, 333 kPa, Gas	0.01368
